In one test the test system is pp-VSV-SARS-CoV-2. Description: Adhesion of pp-VSV-SARS-CoV-2 on Vero cells, flow cytometry with anti-spike S1. Type of test: cell-based. Conditions: 20 minutes infection in presence of lipid. Background: A flow cytometer gives signals particle by particle.
Test [1] relates to lymphocytic choriomeningitis virus (LCMV). The test is classed as cell-based, LCMV strain WE. Conditions: 24 hours.
The target of another test is T1, recombinant ACE2 (Homo sapiens, UniProt Q9BYF1).
T1 construct: purchased Abcam ab273687
T1 sequence (Q9BYF1 18-805): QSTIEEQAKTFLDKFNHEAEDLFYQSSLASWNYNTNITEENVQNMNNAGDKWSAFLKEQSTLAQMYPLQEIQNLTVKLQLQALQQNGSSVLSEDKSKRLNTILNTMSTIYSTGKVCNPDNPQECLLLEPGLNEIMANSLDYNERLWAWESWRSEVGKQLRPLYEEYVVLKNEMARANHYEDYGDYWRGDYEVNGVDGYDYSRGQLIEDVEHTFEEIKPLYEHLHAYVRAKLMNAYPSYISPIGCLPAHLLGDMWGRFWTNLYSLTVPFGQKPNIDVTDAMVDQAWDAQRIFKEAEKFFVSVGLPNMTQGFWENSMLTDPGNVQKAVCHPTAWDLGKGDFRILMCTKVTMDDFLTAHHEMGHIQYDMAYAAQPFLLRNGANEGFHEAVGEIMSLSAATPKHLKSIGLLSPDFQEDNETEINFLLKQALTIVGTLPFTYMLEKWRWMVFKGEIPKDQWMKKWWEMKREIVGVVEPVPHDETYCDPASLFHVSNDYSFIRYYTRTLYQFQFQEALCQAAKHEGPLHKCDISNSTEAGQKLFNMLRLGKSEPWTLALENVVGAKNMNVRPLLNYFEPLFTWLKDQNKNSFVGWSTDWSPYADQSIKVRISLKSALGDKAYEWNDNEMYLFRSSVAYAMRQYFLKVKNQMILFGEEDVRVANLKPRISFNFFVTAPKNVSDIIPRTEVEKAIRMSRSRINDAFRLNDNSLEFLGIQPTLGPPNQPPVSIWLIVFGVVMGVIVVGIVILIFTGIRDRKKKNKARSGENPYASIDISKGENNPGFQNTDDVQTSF
The experiment in a line: Binding of lipids to immobilized recombinant ACE2. Conditions: sphingosine at 2 μM.

Test [2] concerns lymphocytic choriomeningitis virus (LCMV). Type of test: cell-based, LCMV strain WE.
In test [3] the test system is vesicular stomatitis virus (VSV). Type of test: cell-based, VSV strain Indiana. Conditions: 24 hours.

Entries after “also recorded” stand apart in the source; their conditions may differ.

For `CCCCCCCCCCCCC/C=C/[C@@H](O)[C@H](CO)NC(=O)CCCCCCCCCCCCCCC` [C16-ceramide], the “binding of pp-VSV-SARS-CoV-2 to the cell surface” value (“binding … to the cell surface” for short) with pp-VSV-SARS-CoV-2 is “None of the other lipids had an effect”. As to `Oc1ccc(Nc2nc(-c3ccc(Cl)cc3)cs2)cc1` [SKII, [2-(p-hydroxyanilino)-4-(p-chlorophenyl)thiazole]], the “spreading of the virus (LCMV-infected cells)” value in test [1] is reported as “inhibits spreading of the virus; also recorded: inhibits the spreading of the virus”. On to `CCCCCCCCCCCCC/C=C/[C@@H](O)[C@@H](N)COP(=O)(O)O` [sphingosine 1-phosphate], for which the “binding of lipid to immobilized recombinant ACE2 (beads)” value (“binding of lipid” below) on recombinant ACE2 is on record as “showed no interation with the beads”. Further, in the test on pp-VSV-SARS-CoV-2, the “binding … to the cell surface” value is “None of the other lipids had an effect”. On to cardiolipin, for which, on recombinant ACE2, the “binding of lipid” value was “showed no interation with the beads”. Also, the “binding … to the cell surface” value with pp-VSV-SARS-CoV-2 is given as “None of the other lipids had an effect”. Regarding ceramide, on recombinant ACE2, the “binding of lipid” value is “showed no interation with the beads”. For lactosyl-ceramide, the “binding … to the cell surface” value with pp-VSV-SARS-CoV-2 is on record as “None of the other lipids had an effect”. phosphatidyl-ethanolamine: the “binding of lipid” value on recombinant ACE2 was “showed no interation with the beads”. Turning to phosphatidylcholine, the “binding of lipid” value on recombinant ACE2 is on record as “showed no interation with the beads”. Besides, the “binding … to the cell surface” value in the test with pp-VSV-SARS-CoV-2 is given as “None of the other lipids had an effect”. Taken in the same sequence, the figures for sphingomyelin were “showed no interation with the beads” and “None of the other lipids had an effect”.

sphingomyelinase: in test [2], the “propagation of LCMV (infectious LCMV particles in the supernatant)” value was “reduced propagation of LCMV; also recorded: inhibits the propagation of LCMV”. For the same compound, the “propagation of VSV (number of plaques)” value in test [3] is recorded as “inhibits the propagation of VSV”.

The values are drawn from patent publication US11298412B2, “Sphingoid compounds for prophylaxis and/or therapy of coronaviridae infection” (priority 2020, dated 2022).
